In experiment [1] the test system is CT26 cells. The experiment is described as follows: CT26 tumor xenograft model, tumor volume. Format: in vivo, BALB/c mice. The procedure:
We used a CT26 tumor xenograft model to test the anti-cancer activity of H1b-ADP. Tumor cells (2×10^5 per 100 uL CT26 cells) were inoculated subcutaneously into the right flank of BALB/c mice. At day 6, mice whose tumors had reached 3-5 mm in diameter were randomized and grouped into three groups (n=8 each group), control, HMP-1bP (580 ug), and H1b-ADP (1.2 ug). Injections were performed using a total volume of 20 uL at days 6, 8, 10, 12, and 14 post inoculation. Tumor volumes were calculated every 2 days from caliper measurements of tumor dimension using the formula (L×W^2)/2, where L is the longer measurement.
To test whether H1b-ADP could augment an anti-tumor response by a checkpoint inhibitor, we tested the effects of co-administration with an anti-PD1 antibody. Tumor cells (2×10^5 per 100 μL CT26 cells) were inoculated subcutaneously into the left and right flanks of BALB/c mice. At day 7, mice whose tumors had reached 5 mm in diameter were randomized and grouped (n=8 each group) into the following four groups: anti-PD1 antibody; rat IgG; H1b-ADP+rat IgG; H1b-ADP+anti-PD1 antibody. We utilized RMP1-14 as the anti-PD1 antibody (10 mg/kg) and a rat IgG 2a (2A3) as the control IgG. Each of the anti-PD-1 antibody and the control IgG was administered intraperitoneally in a 200 μL volume on days 6, 10, 12, and 17 post-inoculation. H1b-ADP (6.2 μg) was intratumorally injected in a 20 μL volume at day 6, 8, 10, 12, and 15. Tumor volumes were calculated every 2 days from caliper measurements of tumor dimensions using the formula (L×W^2)/2, where L is the longer measurement. The results are shown in FIG. 13A for injected tumors and FIG. 13B for distant tumors. […]
The experiment was carried out as combo experiments of anti-PD1 except for the following variations. At day 6, mice whose tumors had reached 5 mm in diameter were randomized and grouped into the following four groups: c-di-AM(PS)2; PBS; H1b-ADP; H1b-ADP+c-di-AM(PS)2. We utilized c-di-AM(PS)2 as the STING agonist. Each of the c-di-AM(PS)2 (1 μg) and H1b-ADP (6.2 μg) was administered intratumorally in a 20 μL volume on days 6, 7, and 9 post-inoculation.
The experiment was carried out as combo experiments of anti-PD-1 except for the following variations. At day 6, mice whose tumors had reached 5 mm in diameter were randomized and grouped into the following four groups: anti-CD4 antibody (GK1.5 clone, BE0003-1, BioXcell); rat IgG; H1b-ADP+rat IgG; H1b-ADP+anti-CD4 antibody. Each of the anti-CD4 antibody (200 μg) and the control IgG (200 μg) was administered intraperitoneally in a 200 μL volume on days 3, 4, 8 post-inoculation. H1b-ADP (6.2 μg) was administered intratumorally in a 20 μL volume on days 6, 8, 10, 12, 14 post-inoculation.
The experiment was carried out as combo experiments of anti-PD-1 except for the following variations. At day 6, mice whose tumors had reached 5 mm in diameter were randomized and grouped into the following four groups: Resquimod; PBS; H1b-ADP; H1b-ADP+Resquimod. Resquimod (10 μg) and H1b-ADP (6.2 μg) were administered intratumorally in a 20 μL volume on days 6, 8, 11 post-inoculation.
We used a CT26 tumor xenograft model to test the anti-cancer activity of H1b-ADP derivative Compounds 1 and 2. Tumor cells (2×10^5 per 100 uL CT26 cells) were inoculated subcutaneously into the right flank of BALB/c mice. At day 7, mice whose tumors had reached 3-5 mm in diameter were randomized and grouped into three groups (n=9 each group), control, Compound 1 (50 nmol), and Compound 2 (50 nmol). Injections were performed using a total volume of 20 uL at days 7, 9, and 11 post inoculation. Tumor volumes were calculated every 2 days from caliper measurements of tumor dimension using the formula (L×W^2)/2, where L is the longer measurement.

For experiment [2], the target named is T1, ALPK1 (Homo sapiens, UniProt Q96QP1). The experiment is described as follows: IL8 secretion in HEK293 cells (IL8 ELISA) as indicator of ALPK1 activation. To be noted: without FBS, 4 hours. A general note: An ELISA detects its analyte on a solid surface through an enzyme-linked reagent.
Description: (§1) We pre-mixed H1b-ADP with phosphatase inhibitor sodium orthovanadate (Na3VO4) before incubation with FBS.
(§2) In these experiments, serial dilutions of the compounds were added to the tissue culture media of HEK293 cells with (FIG. 27B, FIG. 28B, FIG. 29B) or without (FIG. 26, FIG. 27A, FIG. 28A, FIG. 29A) 10% FBS, as indicated in the figures. After 4 hours, the cell supernatant was collected and analyzed for IL8 concentration using IL8 ELISA (BD) as an indicator of ALPK1 activation.
Experiment [3] addresses T1, ALPK1. The experiment is described as follows: Thermal shift assay (SYPRO Orange) for binding to ALPK1. To be noted: ALPK1 7 uM; 1 uM, 5 uM, 25 uM, or 125 uM. An excerpt:
The thermal shift assay is widely used to determine the binding of a molecule to a protein of interest. The assay is based on the increase in thermal energy required for denaturation of a protein where another molecule is bound to the protein. SYPRO Orange is a fluorescent compound used in the detection of thermal shift. SYPRO Orange binds to hydrophobic surfaces of the protein, and water strongly quenches its fluorescence. When the protein unfolds, the exposed hydrophobic surfaces bind the dye, resulting in an increase in fluorescence. When another molecule is bound to the protein, an increase in the temperature required for unfolding of the protein is observed.
This assay system was used to determine whether or not chemically synthesized HBP, HMP-1bP, and H1b-ADP directly bind to ALPK1. […] Only H1b-ADP induced a shift of more than 1 degree, at each of the three highest concentrations tested, 5 uM, 25 uM, and 125 uM.

Experiment [4] deals with T1, ALPK1. The experiment is described as follows: Cell-free kinase assay of ALPK1 autophosphorylation (Western, anti-phospho-threonine). It is filed as biochemical. To be noted: ALPK1 2 nM, ATP; H1b-ADP 10, 1, 0.2 nM; HBP and HMP-1bP 1, 10, 100 nM. The procedure:
ALPK1 activation results in its autophosphorylation. Accordingly, we next asked whether the binding of H1b-ADP to ALPK1 was sufficient to induce ALPK1 autophosphorylation. Phosphorylation assays were performed according to standard protocols. Briefly, ALPK1 was incubated (2 nM, 25° C., 1 h) in assay buffer (20 al, 25 mM HEPES pH 7.5, 50 mM KCl, 0.1 mM EDTA, 0.1 mM EGTA, 2 mM DTT, 1.5 mM CaCl2, 10 mM MgCl2) with ATP and chemically synthesized HBP, HMP-1bP, or H1b-ADP followed by denaturing gel electrophoresis and Western analysis with an anti-phospho-threonine antibody (CST) to detect autophosphorylation of ALPK1. […] The range of concentrations of HBP and HMP-1bP used in this assay (1 nM, 10 nM, 100 nM) was 10-fold higher than that used for H1b-ADP.

The target of experiment [5] is T1, ALPK1. Briefly: In vitro kinase assay of ALPK1-dependent TIFA phosphorylation. It is filed as biochemical. To be noted: for phosphorylation of the ALPK1 substrate TIFA: FIG. 7, chemically-synthesized compounds. The procedure:
We performed an in vitro kinase assay with H1b-ADP and H1b-ADP-6L along with ALPK1 protein (2 nM), and TIFA protein (1.6 uM) in kinase buffer containing 50 uM ATP. TIFA phosphorylation was analyzed by denaturing gel electrophoresis followed by western blotting using an anti-phosphothreonine antibody. H1b-ADP or H1b-ADP-6L was added at 2 nM, 0.4 nM, 80 pM, 16 pM, and 3 pM.
To test this, we performed an in vitro kinase reaction for ALPK1-dependent TIFA phosphorylation in the presence of either HBP or HIdA purified from E. coli containing inactivated HIdE, or in the presence of HBP and HIdA purified from the same HIdE wild-type E. coli used in the previous experiments. Phosphorylated TIFA (three concentrations, 1%, 0.2% and […]) was detected as described above by denaturing gel electrophoresis followed by Western analysis.

Experiment [6] addresses T1, ALPK1. The experiment is described as follows: IL-8 and TNFα mRNA expression in HEK293 cells with control or ALPK1-directed siRNA. It is filed as cell-based. Details: ALPK1-directed small interfering RNA (siRNA) to silence ALPK1 expression in HEK293 cells; endogenous in cells; host or cells: HEK293. To be noted: for IL-8 mRNA expression / TNFα mRNA expression: 4 hours, control vs ALPK1-directed siRNA; for concentration required to induce IL-8 and TNFα mRNA expression: FIG. 5. The procedure: To test whether HBP, HMP-1bP, and H1b-ADP were able to induce cytokine expression in an ALPK1 dependent manner, we used an ALPK1-directed small interfering RNA (siRNA) to silence ALPK1 expression in HEK293 cells. Cells were plated (1×10^4 cells/well) into 96-well plates and transfected with either control siRNA or ALPK1-directed siRNA according to the manufacturer's protocols (Lipofectamine™ RNAiMax™, Invitrogen 13778075). Following 2 days of culture, either (1) HBP (500 uM, 100 uM, 20 uM, FIG. 2A-2B) (2) HMP-1bP (500 uM, 100 uM, FIG. 3A-3B), (3) H1b-ADP (100 nM, 20 nM, 4 nM, 0.8 nM, FIG. 4A-4B) was added to culture medium and cells were harvested 4 hours later.

The test system of experiment [7] is mouse liver and lung tissue. Briefly: Chemokine and cytokine expression in liver and lung tissue after subcutaneous injection (qPCR). Format: in vivo. To be noted: C57 mice, three hours. The procedure:
In additional experiments, Compound 1 was injected subcutaneously into 7 week old C57 mice at concentrations of 2, 10, 50, and 200 nmol. Tissue was harvested three hours later and RNA extracted. Quantitative PCR (qPCR) was performed to determine the tissue expression levels Cxcl1, Cxcl11, IL1b, and IL6 in mouse liver (FIG. 32A) and lung (FIG. 32B) tissue. Additional chemokines and cytokines were assayed in the lung tissue.
On the technique in general: Real-time PCR tracks product formation cycle by cycle.

Experiment [8] deals with phosphatase activity in the serum. Briefly: Incubation of H1b-ADP with FBS, product analysed by LC-MS. Format: in vitro ADME, bovine. To be noted: pre-treatment of H1b-ADP before serum incubation. The text has this: FBS contains 110-352 U/ml alkaline phosphatase.
The subject of experiment [9] is ALPK1. The experiment is described as follows: IL8 secretion in HEK293 cells (IL8 ELISA) as indicator of ALPK1 activation. To be noted: added to the FBS-containing medium, HEK293 cells, IL8 secretion.
Description: as §1, §2
Where [10] appears, read: Example 18: 50 nmol, injections days 7, 9, 11.

Structures are written as SMILES.

T1 sequence (Q96QP1 whole entry): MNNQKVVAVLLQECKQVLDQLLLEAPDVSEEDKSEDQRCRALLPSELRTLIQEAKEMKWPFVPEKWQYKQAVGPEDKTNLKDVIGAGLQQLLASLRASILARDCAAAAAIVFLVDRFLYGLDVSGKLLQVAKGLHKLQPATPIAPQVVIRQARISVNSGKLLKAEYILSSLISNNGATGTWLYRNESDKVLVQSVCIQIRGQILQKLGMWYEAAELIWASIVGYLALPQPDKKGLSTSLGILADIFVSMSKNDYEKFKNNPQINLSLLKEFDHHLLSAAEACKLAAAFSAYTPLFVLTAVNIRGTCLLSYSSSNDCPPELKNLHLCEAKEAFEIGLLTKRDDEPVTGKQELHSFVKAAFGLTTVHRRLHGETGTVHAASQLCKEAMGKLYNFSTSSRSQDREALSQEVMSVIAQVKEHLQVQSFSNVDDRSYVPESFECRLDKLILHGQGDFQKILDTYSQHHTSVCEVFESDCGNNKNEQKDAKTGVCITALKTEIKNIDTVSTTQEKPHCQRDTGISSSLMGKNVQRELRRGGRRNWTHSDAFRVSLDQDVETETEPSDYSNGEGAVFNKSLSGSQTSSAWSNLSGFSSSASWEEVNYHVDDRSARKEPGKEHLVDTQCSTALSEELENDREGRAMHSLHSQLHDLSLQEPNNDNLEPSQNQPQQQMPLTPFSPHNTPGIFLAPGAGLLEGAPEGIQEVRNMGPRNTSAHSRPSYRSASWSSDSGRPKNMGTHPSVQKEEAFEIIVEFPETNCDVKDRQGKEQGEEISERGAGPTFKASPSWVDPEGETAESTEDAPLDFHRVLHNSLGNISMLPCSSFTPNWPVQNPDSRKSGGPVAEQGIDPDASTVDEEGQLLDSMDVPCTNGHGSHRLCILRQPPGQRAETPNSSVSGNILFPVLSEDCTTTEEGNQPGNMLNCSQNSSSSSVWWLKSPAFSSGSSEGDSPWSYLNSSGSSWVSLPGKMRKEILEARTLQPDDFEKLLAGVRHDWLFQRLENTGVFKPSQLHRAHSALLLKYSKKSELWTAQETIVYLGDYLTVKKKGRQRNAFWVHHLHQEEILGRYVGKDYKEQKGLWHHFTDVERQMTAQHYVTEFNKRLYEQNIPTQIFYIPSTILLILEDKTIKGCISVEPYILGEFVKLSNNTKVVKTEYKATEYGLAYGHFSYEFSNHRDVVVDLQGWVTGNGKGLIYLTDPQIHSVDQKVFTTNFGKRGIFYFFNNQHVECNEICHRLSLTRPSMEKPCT

Consider `Nc1ncnc2c1ncn2[C@@H]1O[C@H](COP(=O)(O)OP(=O)(O)O[C@@H]2OC([C@H](O)CO)[C@@H](O)C(O)C2O)C(F)C1O` (stereo partly drawn) [Compound 2, Adenosine-3′-fluoro-5′-(D-glycero-β-D-mannoheptopyranosyl) diphosphate], for which the tumor growth entry in experiment [1] (setting [10]) is given as “reduced tumor growth”. The “IL8 secretion in HEK293 cells” value in [2] is “activate IL8 secretion”.
For `O=P(O)(O)OC[C@@H](O)[C@H]1O[C@@H](OP(=O)(O)O)[C@@H](O)[C@@H](O)[C@@H]1O` [HBP, D-glycero-β-D-manno-heptose 1,7-bisphosphate], in experiment [3], the “thermal shift / direct binding to ALPK1” value was “Neither HBP nor HMP-1bP were able to induce a thermal shift”. In addition, the “autophosphorylation of ALPK1” value in [4] is listed as “not”. For the same compound, in experiment [5], the “phosphorylation of the ALPK1 substrate TIFA” value is “only in the presence of H1b-ADP”. Also, in experiment [1] (summary statement), the “anti-tumor activity in a murine tumor model” value is “not”. In experiment [6], the “IL-8 mRNA expression” value is “increased in an ALPK1-dependent manner”; the “TNFα mRNA expression” value is listed as “increased in an ALPK1-dependent manner”; the “concentration required to induce IL-8 and TNFα mRNA expression” value was determined as 100 µM.
In the case of `Nc1ncnc2c1ncn2[C@@H]1O[C@H](COP(=O)(O)OP(=O)(O)O[C@@H]2O[C@H]([C@@H](O)CO)[C@@H](O)[C@H](O)[C@@H]2O)[C@@H](O)[C@H]1O` [Compound H1b-ADP-6L, L-glycero-D-manno-heptose-1β-ADP], in [5] (ALPK1 2 nM, TIFA 1.6 uM, 50 uM ATP, 2 nM to 3 pM), the “TIFA phosphorylation (ALPK1-dependent signaling)” value is given as “activated ALPK1-dependent signaling in a manner similar to H1b-ADP”.
In the case of `CC(=O)OC[C@@H](OC(C)=O)[C@H]1O[C@@H](OP(=O)(O)OP(=O)(O)OC[C@H]2O[C@@H](n3cnc4c(N)ncnc43)[C@H](O)[C@@H]2F)[C@@H](OC(C)=O)[C@@H](OC(C)=O)[C@@H]1OC(C)=O` [Compound 1, (2S,3S,4S,5R,6R)-2-(((((((2R,3S,4S,5R)-5-(6-amino-9H-purin-9-yl)-3-fluoro-4-hydroxytetrahydrofuran-2-yl)methoxy)(hydroxy)phosphoryl)oxy)(hydroxy)phosphoryl)oxy)-6-((R)-1,2-diacetoxyethyl)tetrahydro-2H-pyran-3,4,5-triyl triacetate], the tumor growth result in [1] (setting [10]) is reported as “reduced tumor growth”. Also, in [7], the “dose activating an inflammatory response in lung tissue” value is 200 nmol. For the same compound, the “dose activating an inflammatory response in liver tissue” value in experiment [7] (2 nmole = 1.2 μg) is at most 2 nmol. Also, the “IL8 secretion in HEK293 cells” value in [2] is “activate IL8 secretion”.
On to `Nc1ncnc2c1ncn2[C@@H]1O[C@H](COP(=O)(O)O)[C@@H](O)[C@H]1O` [AMP], for which the “phosphatase activity in serum” value in experiment [8] is “inhibited phosphatase activity and the inhibition was AMP dose-dependent”. The “restoration of H1b-ADP's activity in the cell based assay” value in experiment [9] is listed as “could restore H1b-ADP's activity”.
Turning to `O=P(O)(O)O[C@@H]1O[C@H]([C@H](O)CO)[C@@H](O)[C@H](O)[C@@H]1O` [HMP-1bP, D-glycero-β-D-manno-heptose-1-phosphate], in experiment [3], the “thermal shift / direct binding to ALPK1” value is given as “Neither HBP nor HMP-1bP were able to induce a thermal shift”. Further, the “autophosphorylation of ALPK1” value in experiment [4] is on record as “not”. In addition, the “phosphorylation of the ALPK1 substrate TIFA” value in experiment [5] was “only in the presence of H1b-ADP”. The tumor growth result in [1] (intratumoral, days 6, 8, 10, 12, 14, HMP-1bP 580 ug, H1b-ADP 1.2 ug) is “not”. In experiment [6], the “IL-8 mRNA expression” value was “increased in an ALPK1-dependent manner”; the “TNFα mRNA expression” value is given as “increased in an ALPK1-dependent manner”; the “concentration required to induce IL-8 and TNFα mRNA expression” value was determined as 100 µM.

Values taken from patent US11186606B2, “Compositions and methods of modulating the immune response by activating alpha protein kinase 1” (Shanghai Yao Yuan Biotechnology Co., Ltd., priority 2017, dated 2021).
